Experimental data from ChEMBL document CHEMBL3045519, “Selective Herbicidal Activity of 3, 5-Dichloropyridyloxy-phenoxypropionamidoxyacetic Acid Derivatives between Wheat and Wild Oat” (J Pestic Sci, 1996).
Active and inactive are the calls of the source. The calls are words filed in the database; no cut-off is given here.

Tests used:
Avena fatua [1] = experiment: Post-emergence herbicidal activity against Avena fatua under greenhouse conditions compound treated at 1.5-leaf stage measured after 3 weeks by pot test relative to diclofop-methyl; format: functional
Triticum aestivum [2] = experiment: Phytotoxicity against Triticum aestivum (wheat) under greenhouse conditions at 5 g/a at 1.5-leaf stage measured after 3 weeks by pot test; format: organism-based; details: in vivo, 504 h
Triticum aestivum [3] = experiment: Phytotoxicity against Triticum aestivum (wheat) under greenhouse conditions at 2.5 g/a at 1.5-leaf stage measured after 3 weeks by pot test; format: organism-based; details: in vivo, 504 h
Triticum aestivum [4] = experiment: Phytotoxicity against Triticum aestivum (wheat) under greenhouse conditions at 1.3 g/a at 1.5-leaf stage measured after 3 weeks by pot test; format: organism-based; details: in vivo, 504 h
Triticum aestivum [5] = experiment: Phytotoxicity against Triticum aestivum (wheat) under greenhouse conditions at 0.6 g/a at 1.5-leaf stage measured after 3 weeks by pot test; format: organism-based; details: in vivo, 504 h
Triticum aestivum [6] = experiment: Phytotoxicity against Triticum aestivum (wheat) under greenhouse conditions at 0.3 g/a at 1.5-leaf stage measured after 3 weeks by pot test; format: organism-based; details: in vivo, 504 h
Avena fatua [7] = experiment: Post-emergence herbicidal activity against Avena fatua under greenhouse conditions at 0.3 g/a at 1.5-leaf stage measured after 3 weeks by pot test; format: functional, organism-based
Avena fatua [8] = experiment: Post-emergence herbicidal activity against Avena fatua under greenhouse conditions at 5 g/a at 1.5-leaf stage measured after 3 weeks by pot test; format: functional, organism-based
Avena fatua [9] = experiment: Post-emergence herbicidal activity against Avena fatua under greenhouse conditions at 2.5 g/a at 1.5-leaf stage measured after 3 weeks by pot test; format: functional, organism-based
Avena fatua [10] = experiment: Post-emergence herbicidal activity against Avena fatua under greenhouse conditions at 1.3 g/a at 1.5-leaf stage measured after 3 weeks by pot test; format: functional, organism-based
Avena fatua [11] = experiment: Post-emergence herbicidal activity against Avena fatua under greenhouse conditions at 0.6 g/a at 1.5-leaf stage measured after 3 weeks by pot test; format: functional, organism-based
Triticum aestivum [12] = experiment: Phytotoxicity against Triticum aestivum (wheat) under greenhouse conditions at 10 g/a at 1.5-leaf stage measured after 3 weeks by pot test; format: organism-based; details: in vivo, 504 h
Avena fatua [13] = experiment: Post-emergence herbicidal activity against Avena fatua under greenhouse conditions at 10 g/a at 1.5-leaf stage measured after 3 weeks by pot test; format: functional, organism-based

Compound | Ratio (Avena fatua [1]) | Activity (Triticum aestivum [2]) | Activity (Triticum aestivum [3]) | Activity (Triticum aestivum [4]) | Activity (Triticum aestivum [5]) | Activity (Triticum aestivum [6]) | Activity (Avena fatua [7]) | Activity (Avena fatua [8]) | Activity (Avena fatua [9]) | Activity (Avena fatua [10]) | Activity (Avena fatua [11]) | Activity (Triticum aestivum [12]) | Activity (Avena fatua [13])
CCNC(=O)CNC(=O)C(C)Oc1ccc(Oc2ncc(Cl)cc2Cl)cc1 (stereo unspecified) | 2 | Non-toxic | Non-toxic | Non-toxic | Non-toxic | Non-toxic | Active | Active | Active | Active | Active | – | –
COC(=O)C(C)Oc1ccc(Oc2ccc(Cl)cc2Cl)cc1 (stereo unspecified) [DICLOFOP-METHYL] | – | Non-toxic | Non-toxic | Non-toxic | Non-toxic | – | – | Active | Active | inactive | inactive | Non-toxic | Active
